Results taken from the supplement of paper PMC10307832.

Tests used:
Assay in all cases: relative viability (nuclei count vs DMSO), 5 days (fraction); higher = more cells survive
[1] = compound: CC1(C)CCC(c2ccc(Cl)cc2)=C(CN2CCN(c3ccc(C(=O)NS(=O)(=O)c4ccc(N[C@H](CCN5CCOCC5)CSc5ccccc5)c(S(=O)(=O)C(F)(F)F)c4)cc3)CC2)C1 [Navitoclax]
Outline: (§1)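 MetaXpress counted nuclei in 4× images of lung cancer cell lines that had been fixed, permeabilised and Hoechst-stained in one step. Before that, cells in 1536-well plates were kept overnight at 37 °C, pinned with five √10-spaced library-drug doses on vehicle-anchored plates, and cultured 5 days without medium change. Viability takes treated-well nuclei over vehicle-well nuclei and uses the median across plates. Plates were accepted only at control CV below 25% and at least one doubling.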

[2] = compound: CCCCCCCC[C@H]1[C@@H](C(=C)C(=O)O1)C(=O)O [C-75]
Outline: as §1

[3] = compound: NC(=O)Nc1cc(-c2cccc(F)c2)sc1C(=O)N[C@H]1CCCNC1 [AZD7762]
Outline: as §1

[4] = compound: O=C(O)c1ccc(-c2c[nH]c3ncc(-c4ccccc4)cc23)cc1C1CCCC1
Outline: as §1

[5] = compound: Oc1nc(-c2ccc(C(F)(F)F)cc2)nc2c1CSCC2 [XAV939]
Outline: as §1

Cell Line | relative viability ([1]; 0.005 µM) | relative viability ([1]; 0.01581 µM) | relative viability ([1]; 0.05 µM) | relative viability ([1]; 0.1581 µM) | relative viability ([1]; 0.5 µM) | relative viability ([1]; 0.5 µM, anchor plate) | relative viability ([2]; 0.08 µM) | relative viability ([2]; 0.253 µM) | relative viability ([2]; 0.8 µM) | relative viability ([2]; 2.53 µM) | relative viability ([2]; 8 µM) | relative viability ([3]; 0.01 µM) | relative viability ([3]; 0.03162 µM) | relative viability ([3]; 0.1 µM) | relative viability ([3]; 0.3162 µM) | relative viability ([3]; 1 µM) | relative viability ([4]; 0.04 µM) | relative viability ([4]; 0.1265 µM) | relative viability ([4]; 0.4 µM) | relative viability ([4]; 1.265 µM) | relative viability ([5]; 0.08 µM) | relative viability ([5]; 0.253 µM) | relative viability ([5]; 0.8 µM) | relative viability ([5]; 2.53 µM) | relative viability ([3]; 0.2 µM, anchor plate)
SK-LU-1 | 1.01 | 1.06 | 1.12 | 0.949 | 1.02 | 0.813 | 1 | 1.06 | 0.964 | 0.894 | 0.816 | 1.1 | 1.06 | 0.633 | 0.366 | 0.242 | 1.01 | 1.13 | 0.978 | 0.74 | 1.01 | 1.02 | 1.03 | 1.07 | –
SK-MES-1 | 1.01 | 1.17 | 1.11 | 0.95 | 1.04 | 1.25 | 1.01 | 1.02 | 0.937 | 0.93 | 0.943 | 1 | 1.03 | 1.05 | 0.818 | 0.372 | 1 | 1.05 | 0.943 | 0.755 | 1.07 | 0.906 | 0.919 | 0.858 | –
SW 900 | 0.841 | 1.06 | 0.667 | 0.742 | 0.925 | – | 0.786 | 1.11 | 0.719 | 0.695 | 0.867 | 0.876 | 0.957 | 1.17 | 0.891 | 0.475 | 0.846 | 0.915 | 0.777 | 0.741 | 0.954 | 0.832 | 0.928 | 0.677 | 0.68
SW 1573 | 1.03 | 1.11 | 1.06 | 0.901 | 0.956 | 0.973 | 0.981 | 1.05 | 0.946 | 0.758 | 0.855 | 1.13 | 1.05 | 1.08 | 0.96 | 0.607 | 0.981 | 1.03 | 0.89 | 0.706 | 1.1 | 0.857 | 0.908 | 0.81 | –
UMC-11 | 0.944 | 0.966 | 0.742 | 0.903 | 0.621 | 0.324 | 0.949 | 1.1 | 0.875 | 0.721 | 0.726 | 0.997 | 0.961 | 0.979 | 0.822 | 0.537 | 0.978 | 1.08 | 0.934 | 0.905 | 0.996 | 0.777 | 0.955 | 0.868 | –
